Measurements: ChEMBL document CHEMBL3612048, “Cytotoxic triterpenoid glycosides (saikosaponins) from the roots of Bupleurum chinense” (Bioorg Med Chem Lett, 2015)

Columns and labels:
Bcap37 = assay: Cytotoxicity against human Bcap37 cells assessed as induction of cell death incubated for 2 days by MTT assay; format: functional, cell-based; conditions: Bcap37, 48 h
[1] = Cytotoxicity against human Hep3B cells assessed as induction of cell death incubated for 2 days by MTT assay; format: functional, cell-based, Hep 3B2; conditions: 48 h
A549 = assay: Cytotoxicity against human A549 cells assessed as induction of cell death incubated for 2 days by MTT assay; format: functional, cell-based; conditions: A549, 48 h
HepG2 = assay: Cytotoxicity against human HepG2 cells assessed as induction of cell death incubated for 2 days by MTT assay; format: functional, cell-based; conditions: HepG2, 48 h
MCF7 = assay: Cytotoxicity against human MCF7 cells assessed as induction of cell death incubated for 2 days by MTT assay; format: functional, cell-based; conditions: MCF7, 48 h

Row | Structure (SMILES) | IC50 (Bcap37) [µM] | IC50 [1] [µM] | IC50 (A549) [µM] | IC50 (HepG2) [µM] | IC50 (MCF7) [µM]
1 | C[C@H]1O[C@@H](O[C@H]2CC[C@@]3(C)[C@@H](CC[C@]4(C)[C@@H]3C=C[C@]35OC[C@@]6(CCC(C)(C)C[C@H]63)[C@@H](O)C[C@]54C)[C@]2(C)CO)[C@H](O)[C@@H](O)[C@H]1O | 17.3 | 19.8 | > 50 | 13.3 | 43.3
2 | CO[C@@H]1C=C2[C@@H]3CC(C)(C)CC[C@]3(CO)[C@@H](O)C[C@@]2(C)[C@]2(C)CC[C@H]3[C@](C)(CO)[C@@H](O[C@@H]4O[C@H](C)[C@H](O)[C@H](O)[C@H]4O)CC[C@]3(C)[C@@H]12 | > 50 | > 50 | > 50 | 30.2 | > 50
3 | CO[C@@H]1C=C2[C@@H]3CC(C)(C)CC[C@]3(CO)[C@@H](O)C[C@@]2(C)[C@]2(C)CC[C@H]3C(C)(C)[C@@H](O[C@@H]4O[C@H](C)[C@H](O)[C@H](O)[C@H]4O)CC[C@]3(C)[C@@H]12 | > 50 | > 50 | > 50 | > 50 | > 50
4 | CC(=O)OC[C@@]1(C)[C@@H]2CC[C@]3(C)[C@H](C=C[C@]45OC[C@@]6(CCC(C)(C)C[C@H]64)[C@@H](O)C[C@]53C)[C@@]2(C)CC[C@@H]1O[C@@H]1O[C@H](C)[C@H](O)[C@H](O)[C@H]1O | 26 | 24.8 | 34.1 | 9.76 | 33.5
5 | C[C@H]1O[C@@H](O[C@H]2CC[C@@]3(C)[C@@H](CC[C@]4(C)[C@@H]3C=CC3=C5CC(C)(C)CC[C@]5(CO)C(=O)C[C@]34C)[C@]2(C)CO)[C@H](O)[C@@H](O[C@@H]2O[C@H](CO)[C@@H](O)[C@H](O)[C@H]2O)[C@H]1O | > 50 | > 50 | > 50 | 40.2 | > 50
6 | CO[C@@H]1C=C2C3CC(C)(C)CC[C@]3(CO)[C@H](O)C[C@@]2(C)[C@]2(C)CC[C@H]3[C@](C)(CO)[C@@H](O[C@@H]4O[C@H](C)[C@H](O)[C@H](O[C@@H]5O[C@H](CO)[C@@H](O)[C@H](O)[C@H]5O)[C@H]4O)CC[C@]3(C)[C@@H]12 (stereo partly specified) | > 50 | > 50 | > 50 | > 50 | > 50
7 | C[C@H]1O[C@@H](O[C@H]2CC[C@@]3(C)[C@@H](CC[C@]4(C)[C@@H]3C=C[C@]35OC[C@@]6(CCC(C)(C)C[C@H]63)[C@H](O)C[C@]54C)[C@]2(C)CO)[C@H](O)[C@@H](O)[C@H]1O | 32 | 20.4 | > 50 | 9.34 | 49
8 | C[C@H]1O[C@@H](O[C@H]2CC[C@@]3(C)[C@@H](CC[C@]4(C)[C@@H]3C=C[C@]35OC[C@@]6(CCC(C)(C)C[C@H]63)[C@H](O)C[C@]54C)[C@]2(C)CO)[C@H](O)[C@@H](O[C@@H]2O[C@H](CO)[C@@H](O)[C@H](O)[C@H]2O)[C@H]1O | 10.7 | 9.61 | 30.8 | 4.88 | 7.68
9 | C[C@H]1O[C@@H](O[C@H]2CC[C@]3(C)[C@H]4C=C[C@]56OC[C@@]7(CCC(C)(C)C[C@H]75)[C@@H](O)C[C@@]6(C)[C@]4(C)CC[C@H]3C2(C)C)[C@H](O)[C@@H](O[C@@H]2O[C@H](CO)[C@@H](O)[C@H](O)[C@H]2O)[C@H]1O | 15.4 | 16.7 | > 50 | 20.5 | 21.3
10 | CC(=O)O[C@H]1[C@H](O[C@H]2[C@@H](O)[C@@H](C)O[C@@H](O[C@H]3CC[C@@]4(C)[C@@H](CC[C@]5(C)[C@@H]4C=C[C@]46OC[C@@]7(CCC(C)(C)C[C@H]74)[C@@H](O)C[C@]65C)[C@]3(C)CO)[C@@H]2O)O[C@H](CO)[C@@H](O)[C@@H]1O | 17.7 | 5.74 | 38.9 | 20.1 | 30.1
11 | CC(=O)O[C@@H]1[C@@H](O)[C@H](O[C@H]2[C@@H](O)[C@@H](C)O[C@@H](O[C@H]3CC[C@@]4(C)[C@@H](CC[C@]5(C)[C@@H]4C=C[C@]46OC[C@@]7(CCC(C)(C)C[C@H]74)[C@@H](O)C[C@]65C)[C@]3(C)CO)[C@@H]2O)O[C@H](CO)[C@H]1O | 26.6 | 13.7 | 38.2 | 12.9 | 22.2
12 | CC(=O)OC[C@H]1O[C@@H](O[C@H]2[C@@H](O)[C@@H](C)O[C@@H](O[C@H]3CC[C@@]4(C)[C@@H](CC[C@]5(C)[C@@H]4C=C[C@]46OC[C@@]7(CCC(C)(C)C[C@H]74)[C@@H](O)C[C@]65C)[C@]3(C)CO)[C@@H]2O)[C@H](O)[C@@H](O)[C@@H]1O | 34.1 | 16.9 | 35.3 | 20.8 | 36.2
13 | CC(=O)OC[C@@]1(C)[C@@H]2CC[C@]3(C)[C@H](C=C[C@]45OC[C@@]6(CCC(C)(C)C[C@H]64)[C@@H](O)C[C@]53C)[C@@]2(C)CC[C@@H]1O[C@@H]1O[C@H](C)[C@H](O)[C@H](O[C@@H]2O[C@H](CO)[C@@H](O)[C@H](O)[C@H]2O)[C@H]1O | > 50 | > 50 | > 50 | > 50 | > 50
14 | C[C@@H]1O[C@@H](O[C@H]2[C@H](O)[C@@H](O)[C@H](O[C@H]3CC[C@]4(C)[C@H]5C=C[C@]67OC[C@@]8(CCC(C)(C)C[C@H]86)[C@@H](O)C[C@@]7(C)[C@]5(C)CC[C@H]4C3(C)C)O[C@@H]2CO[C@@H]2O[C@H](CO)[C@@H](O)[C@H](O)[C@H]2O)[C@H](O)[C@H](O)[C@H]1O | > 50 | > 50 | > 50 | > 50 | > 50
15 | CC(=O)OC[C@H]1O[C@@H](O[C@H]2[C@@H](O)[C@@H](C)O[C@@H](O[C@H]3CC[C@@]4(C)[C@@H](CC[C@]5(C)[C@@H]4C=C[C@]46OC[C@@]7(CCC(C)(C)C[C@H]74)[C@H](O)C[C@]65C)[C@]3(C)CO)[C@@H]2O)[C@H](O)[C@@H](O)[C@@H]1O | 17.7 | 7.59 | 15.3 | 8.29 | 9.98
16 | C[C@H]1O[C@@H](O[C@H]2CC[C@@]3(C)[C@@H](CC[C@]4(C)[C@@H]3C=CC3=C5CC(C)(C)CC[C@]5(CO)[C@H](O)C[C@]34C)[C@]2(C)CO)[C@H](O)[C@@H](O)[C@H]1O | 38.4 | 16.5 | > 50 | 18.9 | 29.6
17 | C[C@H]1O[C@@H](O[C@H]2CC[C@@]3(C)[C@@H](CC[C@]4(C)[C@@H]3C=CC3=C5CC(C)(C)CC[C@]5(CO)[C@@H](O)C[C@]34C)[C@]2(C)CO)[C@H](O)[C@@H](O)[C@H]1O | 43.2 | 19.8 | > 50 | 26.2 | 42.1
18 | C[C@H]1O[C@@H](O[C@H]2CC[C@@]3(C)[C@@H](CC[C@]4(C)[C@@H]3C=CC3=C5CC(C)(C)CC[C@]5(CO)[C@@H](O)C[C@]34C)[C@]2(C)CO)[C@H](O)[C@@H](O[C@@H]2O[C@H](CO)[C@@H](O)[C@H](O)[C@H]2O)[C@H]1O | > 50 | > 50 | > 50 | > 50 | > 50
19 | C[C@H]1O[C@@H](O[C@H]2CC[C@@]3(C)[C@@H](CC[C@]4(C)[C@@H]3C=C[C@]35OC[C@@]6(CCC(C)(C)C[C@H]63)C(=O)C[C@]54C)[C@]2(C)CO)[C@H](O)[C@@H](O[C@@H]2O[C@H](CO)[C@@H](O)[C@H](O)[C@H]2O)[C@H]1O | 20.2 | 7.75 | 34.1 | 20.6 | 24
20 | O=c1[nH]cc(F)c(=O)[nH]1 [FLUOROURACIL] | – | 1.5 | – | – | –
21 | C[C@H]1O[C@@H](O[C@H]2CC[C@@]3(C)[C@@H](CC[C@]4(C)[C@@H]3C=C[C@]35OC[C@@]6(CCC(C)(C)C[C@H]63)[C@@H](O)C[C@]54C)[C@]2(C)CO)[C@H](O)[C@@H](O[C@@H]2O[C@H](CO)[C@@H](O)[C@H](O)[C@H]2O)[C@H]1O [SAIKOSAPONIN A] | 14 | 13 | 14.5 | 8.34 | 19
